Data from patent US20050008664A1, “Compositions and methods related to lipid:emodin formulations” (Board of Regents, The University of Texas System, priority 2002, published 2005).

Columns and labels:
[1] = tested on: tetracycline regulatable 32D-P210 cell line; assay: MTT assay of cell growth, 3 day exposure to emodin; format: cell-based; settings: emodin solubilized in DMSO, MTT assay at 72 hours, read-out: IC 50, inhibition of cellular growth
Protocol: In Vitro: A tetracycline regulatable 32D-P210 cell line was cultured in RPMI 1640 with 10% FCS and 10% Wehi supernatant and cultured at 37° C. Emodin was solubilized in DMSO at a concentration of 0.4 M for in vitro assays. A concentration of 3×10^4 cells/ml were used in a 24 well plate for a 3 day exposure to emodin. Emodin was assayed at 60 μM, 30 μM, and 10 μM concentrations. At 72 hours, a MTT assay was performed to provide a colorometric analysis of cell growth.

[2] = tested on: leukemia; assay: In vivo study of alkaline emodin preparation in leukemia-injected C3H-HEJ mice
Protocol: In vivo: The mouse strain C3H-HEJ (8-10 weeks old) were used for in vivo studies. Emodin was prepared in an alkaline preparation at 10 mg/ml, and was administered to the animals via tail vein injections. One cohort of animals received a single dose of emodin equal to 43 mg/kg per animal. Two other cohorts received either two doses of drug, administered on consecutive days, or there doses of drug, administered on consecutive days. The total concentration of drug administered were 86 mg/kg and 129 mg/kg, respectively. Animals were followed until death, euthanized upon detection of illness, or euthanized at 100 days post leukemia injection.

`Cc1cc(O)c2c(c1)C(=O)c1cc(O)cc(O)c1C2=O` [emodin, 3-methyl-1,6, 8 trihydroxyanthra-quinone] was tested, and the IC50 [1] was about 10 µM, the “tolerability of the preparation by the animal” value ([2]; alkaline preparation at pH 10, tail vein injection, some bruising of the tail noted) was “moderately well tolerated” and the “lifespan of animals injected with leukemia” value ([2]; alkaline preparation, tail vein injections, 43, 86 or 129 mg/kg total, untreated 25 days, animals sacrificed at 100 days) was 100 days.
